In ChEMBL document CHEMBL4483862, “Open-source discovery of chemical leads for next-generation chemoprotective antimalarials” (2018) one finds IC50 and IC90 data, which are given here for 28 molecules.

The assay concerns Plasmodium berghei. The assay can be described thus: Luciferase/luciferin-expressing antifolate-resistant parasites were used to infect a culture of HepG2 cells that were pre-incubated with compounds. Infected hepatocytes emit light due to the luciferase reaction. Assay results are presented as the percent inhibition of light emission compared to control. […]. Conditions: sporozoite; for IC90: read-out: LUCIFERASE INFECTION ASSAY - IC90. The format is functional.

Structures are written as SMILES.

The term IC50 denotes the midpoint of a concentration-inhibition curve. For orientation: IC90 means the concentration needed for an effect of 90%. As to `Oc1cc(C(F)(F)F)nc2c(C(F)(F)F)cccc12`, the IC90 was determined as 5.16 µM. The IC50 (FFLUC_HILL_SLOPE 0.264, FFLUC_R_SQUARED 0.18, PBLUC_HILL_SLOPE 9.49, PBLUC_R_SQUARED 0.416, read-out: LUCIFERASE INFECTION ASSAY - IC50) is 4.09 µM.

On to `Cc1noc(-c2ccc(Cl)cc2)c1C(=O)ON=C(N)c1ccc(C(C)(C)C)cc1`, for which the IC90 is over 8.01 µM. Besides, the IC50 (FFLUC_HILL_SLOPE 0.0669, FFLUC_R_SQUARED 0.264, read-out: LUCIFERASE INFECTION ASSAY - IC50) is over 8.01 µM.

Take `COc1ccc(NC(=O)C2Cc3c(-c4cccc(C(C)=O)c4)ccnc3O2)cc1OC` (stereo unspecified): the IC90 is over 7.89 µM. Further, the IC50 (FFLUC_HILL_SLOPE 0.226, FFLUC_R_SQUARED 0.216, HEPG2TOX_HILL_SLOPE 3.1, HEPG2TOX_R_SQUARED 0.695, PBLUC_HILL_SLOPE 3.79, PBLUC_R_SQUARED 0.351, read-out: LUCIFERASE INFECTION ASSAY - IC50) was 4.93 µM.

For the molecule `CC1(C(=O)NCc2cccs2)Cc2c(-c3ccccc3)ccnc2O1` (stereo unspecified), the IC90 is over 9.42 µM. For the same molecule, the IC50 (FFLUC_HILL_SLOPE 0.144, FFLUC_R_SQUARED 0.18, HEPG2TOX_HILL_SLOPE 3.88, HEPG2TOX_R_SQUARED 0.701, PBLUC_HILL_SLOPE 8.35, PBLUC_R_SQUARED 0.0479, read-out: LUCIFERASE INFECTION ASSAY - IC50) was 7.82 µM.

On to `N#CC(=C1NS(=O)(=O)c2ccccc21)c1nc(C23CC4CC(CC(C4)C2)C3)cs1`, for which the IC90 was 1.97 µM. Besides, where the note is “FFLUC_HILL_SLOPE 0.216, FFLUC_R_SQUARED 0.688, PBLUC_HILL_SLOPE 0.978, PBLUC_R_SQUARED 0.875, read-out: LUCIFERASE INFECTION ASSAY - IC50”, the IC50 turned out to be 0.208 µM.

In the case of `O=C(N/N=C/c1c(-c2ccccc2)nc2sc3c(n12)CCCC3)c1ccc(Br)cc1`, the IC90 was 8.36 µM. In addition, the IC50 (FFLUC_HILL_SLOPE 0.19, FFLUC_R_SQUARED 0.758, PBLUC_HILL_SLOPE 1.28, PBLUC_R_SQUARED 0.573, read-out: LUCIFERASE INFECTION ASSAY - IC50) was found to be 1.51 µM.

As for `CCCCNC(=O)c1c(NC(=O)c2ccc(F)c(F)c2)nc2ccc(C)cn12`, the IC90 is 3.54 µM. Besides, the IC50 (FFLUC_HILL_SLOPE 0.0723, FFLUC_R_SQUARED 0.0194, HEPG2TOX_HILL_SLOPE 0.765, HEPG2TOX_R_SQUARED 0.862, PBLUC_HILL_SLOPE 1.87, PBLUC_R_SQUARED 0.784, read-out: LUCIFERASE INFECTION ASSAY - IC50) was 1.09 µM.

As for `OC(c1cc(F)c(F)c(F)c1)c1nnc(Nc2ccc(F)c(Cl)c2)s1` (stereo unspecified), the IC90 was over 10 µM. The IC50 (FFLUC_HILL_SLOPE 0.27, FFLUC_R_SQUARED 0.307, PBLUC_HILL_SLOPE 3.7, PBLUC_R_SQUARED 0.113, read-out: LUCIFERASE INFECTION ASSAY - IC50) came to 8.96 µM.

Regarding `CCOC(=O)c1sc(-c2ccccc2)cc1NC(=O)COC(=O)c1c2c(nc3ccccc13)CCC(C)C2` (stereo unspecified), the IC90 is over 10 µM. The IC50 (FFLUC_HILL_SLOPE 0.238, FFLUC_R_SQUARED 0.508, read-out: LUCIFERASE INFECTION ASSAY - IC50) was over 10 µM.

As for `CCc1cccc2c(C(=O)COC(=O)c3ccc(S(C)(=O)=O)c([N+](=O)[O-])c3)c[nH]c12`, the IC90 is 6.57 µM. In addition, for the setting “FFLUC_HILL_SLOPE 0.275, FFLUC_R_SQUARED 0.382, HEPG2TOX_HILL_SLOPE 0.775, HEPG2TOX_R_SQUARED 0.837, PBLUC_HILL_SLOPE 46.1, PBLUC_R_SQUARED 0.262, read-out: LUCIFERASE INFECTION ASSAY - IC50”, the IC50 was found to be 6.27 µM.

On to `CC(C)NC(=O)c1c(NC(=O)c2ccc(Cl)cc2Cl)nc2ccccn12`, for which the IC90 amounted to 3.78 µM. Besides, the IC50 (FFLUC_HILL_SLOPE 0.259, FFLUC_R_SQUARED 0.0893, HEPG2TOX_HILL_SLOPE 15, HEPG2TOX_R_SQUARED 0.814, PBLUC_HILL_SLOPE 11.2, PBLUC_R_SQUARED 0.466, read-out: LUCIFERASE INFECTION ASSAY - IC50) amounted to 3.1 µM.

As for `CCC(C)NC(=O)c1c(NC(=O)c2cccc(F)c2)nc2ccc(C)cn12` (stereo unspecified), the IC90 amounted to 2.91 µM. For the same molecule, the IC50 (FFLUC_HILL_SLOPE 0.281, FFLUC_R_SQUARED 0.0242, HEPG2TOX_HILL_SLOPE 2.05, HEPG2TOX_R_SQUARED 0.911, PBLUC_HILL_SLOPE 3.14, PBLUC_R_SQUARED 0.667, read-out: LUCIFERASE INFECTION ASSAY - IC50) is 1.45 µM.

Regarding `Cc1cc(-c2cn3c(-c4cccc(O)c4)cnc3cn2)cc(C)c1O`, the IC90 is over 9.96 µM. Besides, where the note is “FFLUC_HILL_SLOPE 0.138, FFLUC_R_SQUARED 0.042, HEPG2TOX_HILL_SLOPE 1.55, HEPG2TOX_R_SQUARED 0.983, PBLUC_HILL_SLOPE 3.3, PBLUC_R_SQUARED 0.553, read-out: LUCIFERASE INFECTION ASSAY - IC50”, the IC50 came to 6.94 µM.

`O=[N+]([O-])c1cc(C(F)(F)F)ccc1Sc1nnc(-c2ccc(Cl)cc2)[nH]1`: the IC90 is over 8.23 µM. For the same molecule, the IC50 (FFLUC_HILL_SLOPE 0.154, FFLUC_R_SQUARED 0.106, read-out: LUCIFERASE INFECTION ASSAY - IC50) was over 8.23 µM.

With `Clc1ccc(-n2nnnc2Sc2ncnc3sc4c(c23)CCC4)cc1`, the IC90 is over 10 µM. Further, the IC50 (FFLUC_HILL_SLOPE 0.273, FFLUC_R_SQUARED 0.315, read-out: LUCIFERASE INFECTION ASSAY - IC50) is over 10 µM.

Consider `N#CC1(c2ccccc2)C/C(=C\c2cccs2)C(=O)/C(=C/c2cccs2)C1` (stereo unspecified), for which the IC90 is over 10 µM. For the same molecule, the IC50 (FFLUC_HILL_SLOPE 0.232, FFLUC_R_SQUARED 0.325, read-out: LUCIFERASE INFECTION ASSAY - IC50) is over 10 µM.

For the molecule `COc1ccc(CC2(Cc3ccc(OC)c(F)c3)C(=O)N(c3ccccc3C)C(=O)c3ccccc32)cc1F`, the IC90 was over 10 µM. For the same molecule, the IC50 (FFLUC_HILL_SLOPE 0.212, FFLUC_R_SQUARED 0.0258, read-out: LUCIFERASE INFECTION ASSAY - IC50) is over 10 µM.

Take `CC(C)N1C(=O)/C(=N\NC(=S)Nc2cccnc2)c2ccccc21`: the IC90 turned out to be 5.01 µM. For the setting “FFLUC_HILL_SLOPE 0.241, FFLUC_R_SQUARED 0.177, HEPG2TOX_HILL_SLOPE 1.23, HEPG2TOX_R_SQUARED 0.88, PBLUC_HILL_SLOPE 2.27, PBLUC_R_SQUARED 0.476, read-out: LUCIFERASE INFECTION ASSAY - IC50”, the IC50 was found to be 1.9 µM.

On to `Cc1ccc2nc(NC(=O)c3ccccc3)c(C(=O)NC3CCCCC3)n2c1`, for which the IC90 is 3.2 µM. For the same molecule, the 50% inhibitory concentration (IC50) (FFLUC_HILL_SLOPE 0.276, FFLUC_R_SQUARED 0.15, HEPG2TOX_HILL_SLOPE 1.74, HEPG2TOX_R_SQUARED 0.886, PBLUC_HILL_SLOPE 12, PBLUC_R_SQUARED 0.694, read-out: LUCIFERASE INFECTION ASSAY - IC50) stood at 2.66 µM.

In the case of `CCOC(=O)c1cc(-c2ccccc2)sc1NC(=O)CSc1nnc(-c2ccc(C(C)(C)C)cc2)n1-c1ccccc1`, the IC90 was over 10 µM. Besides, the IC50 (FFLUC_HILL_SLOPE 0.186, FFLUC_R_SQUARED 0.0278, read-out: LUCIFERASE INFECTION ASSAY - IC50) was over 10 µM.

With `COc1ccc(CNc2nc(C)nc3scc(-c4ccccc4)c23)cc1`, the IC90 is 6.87 µM. Besides, the IC50 (FFLUC_HILL_SLOPE 0.195, FFLUC_R_SQUARED 0.119, HEPG2TOX_HILL_SLOPE 2.5, HEPG2TOX_R_SQUARED 0.976, PBLUC_HILL_SLOPE 4.55, PBLUC_R_SQUARED 0.142, read-out: LUCIFERASE INFECTION ASSAY - IC50) amounted to 4.24 µM.

As to `NCc1cccc(-c2cc(-c3cc(C(F)(F)F)cc(C(F)(F)F)c3)cnc2N)c1`, the IC90 is over 8.02 µM. Besides, the IC50 (FFLUC_HILL_SLOPE 0.255, FFLUC_R_SQUARED 0.011, PBLUC_HILL_SLOPE 2.95, PBLUC_R_SQUARED 0.223, read-out: LUCIFERASE INFECTION ASSAY - IC50) was determined as 7.98 µM.

Take `CC(C)(C)C(=O)CC(=O)Nc1ccc(C(F)(F)F)cc1`: the IC90 is over 11.5 µM. The half-inhibitory concentration (IC50) (FFLUC_HILL_SLOPE 0.143, FFLUC_R_SQUARED 0.0864, PBLUC_HILL_SLOPE 0.817, PBLUC_R_SQUARED 0.0775, read-out: LUCIFERASE INFECTION ASSAY - IC50) was over 11.5 µM.

Regarding `Cc1cc(C)cc(C(=O)N(C)CC(=O)N2CCCC2)c1`, the IC90 was over 10 µM. Besides, for the setting “FFLUC_HILL_SLOPE 0.201, FFLUC_R_SQUARED 0.0577, read-out: LUCIFERASE INFECTION ASSAY - IC50”, the IC50 is over 10 µM.

Take `COc1ccc(CNC(=O)N(C)CCOc2ccc(OC)cc2)cc1`: the IC90 is over 10 µM. Also, under “FFLUC_HILL_SLOPE 0.273, FFLUC_R_SQUARED 0.253, HEPG2TOX_HILL_SLOPE 16.5, HEPG2TOX_R_SQUARED 0.443, PBLUC_HILL_SLOPE 9.82, PBLUC_R_SQUARED 0.776, read-out: LUCIFERASE INFECTION ASSAY - IC50”, the IC50 stood at 8.44 µM.

On to `OCc1cccc(-c2cnc3cnc(-c4ccc(CNc5ccccc5)cc4)cn23)c1`, for which the IC90 was over 8.12 µM. Moreover, where the note is “FFLUC_HILL_SLOPE 0.18, FFLUC_R_SQUARED 0.146, PBLUC_HILL_SLOPE 3.27, PBLUC_R_SQUARED 0.516, read-out: LUCIFERASE INFECTION ASSAY - IC50”, the IC50 worked out at 6.25 µM.

On to `N#C/C(=C\c1sccc1Oc1ccccc1)S(=O)(=O)c1ccc(C(F)(F)F)cn1`, for which the IC90 was over 7.56 µM. Moreover, the IC50 (FFLUC_HILL_SLOPE 0.259, FFLUC_R_SQUARED 0.0664, read-out: LUCIFERASE INFECTION ASSAY - IC50) was over 7.56 µM.

For the molecule `COc1ccc(N(CCC(N)=O)C(=O)CSc2nc3ccccc3n2-c2ccc(OC)cc2)cc1`, the IC90 is over 10 µM. Further, the IC50 (FFLUC_HILL_SLOPE 0.23, FFLUC_R_SQUARED 0.0771, read-out: LUCIFERASE INFECTION ASSAY - IC50) was over 10 µM.
